Measured values taken from PubChem BioAssay AID1745844 (Carcinogenic Potency Database (CPDB), 2022).

Test system: rodent lifetime carcinogenesis bioassay, tumor incidence TD50
Assay: carcinogenic potency in animals, long-term in vivo studies, CPDB compilation (AID 1745844)
Settings: rat, strain Fischer 344, in feed

Compound `Nc1c(Br)cc(Br)c2c1C(=O)c1ccccc1C2=O` has a TD50 (females, site: liver, lesion: hepatocholangiocarcinoma, dosed 103 weeks, study length 104 weeks) of 566 mg/kg/day, a TD50 (females, site: rectum, lesion: adenocarcinoma, dosed 103 weeks, study length 104 weeks) of 420 mg/kg/day and a TD50 (females, site: rectum, lesion: polypoid adenoma, dosed 40 weeks, study length 66 weeks) of 217 mg/kg/day. It also gave a TD50 (females, site: rectum, lesion: polypoid adenoma, dosed 103 weeks, study length 104 weeks) of 74 mg/kg/day, a TD50 (females, site: skin, lesion: squamous-cell papilloma, dosed 103 weeks, study length 104 weeks) of 2600 mg/kg/day and a TD50 (females, site: urinary bladder, lesion: transitional-cell carcinoma + transitional-cell papilloma + transitional epithelium, squamous-cell carcinoma + transitional ep, dosed 66 weeks, study length 66 weeks) of 2190 mg/kg/day. The TD50 (females, site: urinary bladder, lesion: transitional-cell carcinoma + transitional-cell papilloma + transitional epithelium, squamous-cell carcinoma + transitional ep, dosed 103 weeks, study length 104 weeks) was 304 mg/kg/day, the TD50 (females, site: urinary bladder, lesion: transitional-cell carcinoma, dosed 66 weeks, study length 66 weeks) was 4830 mg/kg/day and the TD50 (females, site: urinary bladder, lesion: transitional-cell carcinoma, dosed 103 weeks, study length 104 weeks) was 656 mg/kg/day. For the same compound, the TD50 (females, site: urinary bladder, lesion: transitional-cell papilloma, dosed 103 weeks, study length 104 weeks) was 782 mg/kg/day, the TD50 (males, site: any site (literature study), lesion: several types, types named in the paper, dosed 39 weeks, study length 66 weeks) was 123 mg/kg/day and the TD50 (males, site: any site (literature study), lesion: several types, types named in the paper, dosed 66 weeks, study length 66 weeks) was 193 mg/kg/day. For the same compound, the TD50 (males, site: any site (literature study), lesion: several types, types named in the paper, dosed 103 weeks, study length 104 weeks) was 130 mg/kg/day, the TD50 (males, site: colon + kidney + liver + rectum + urinary bladder, lesion: adenocarcinoma + polypoid adenoma + tubule adenoma + tubule carcinoma + hepatocholangiocarcinoma + hepatocellular adenoma + hepatoce, dosed 103 weeks, study length 104 weeks) was 54.6 mg/kg/day and the TD50 (males, site: colon + rectum, lesion: adenocarcinoma, dosed 66 weeks, study length 66 weeks) was 1870 mg/kg/day. For the same compound, the TD50 (males, site: colon + rectum, lesion: adenocarcinoma, dosed 103 weeks, study length 104 weeks) was 320 mg/kg/day, the TD50 (males, site: colon + rectum, lesion: polypoid adenoma, dosed 39 weeks, study length 66 weeks) was 297 mg/kg/day and the TD50 (males, site: colon + rectum, lesion: polypoid adenoma, dosed 66 weeks, study length 66 weeks) was 426 mg/kg/day. For the same compound, the TD50 (males, site: colon + rectum, lesion: polypoid adenoma, dosed 103 weeks, study length 104 weeks) was 64.3 mg/kg/day, the TD50 (males, site: colon, lesion: adenocarcinoma, dosed 103 weeks, study length 104 weeks) was 2010 mg/kg/day and the TD50 (males, site: colon, lesion: polypoid adenoma, dosed 103 weeks, study length 104 weeks) was 1660 mg/kg/day. It also gave a TD50 (males, site: kidney, lesion: tubule adenoma + tubule carcinoma, dosed 39 weeks, study length 66 weeks) of 239 mg/kg/day, a TD50 (males, site: kidney, lesion: tubule adenoma + tubule carcinoma, dosed 66 weeks, study length 66 weeks) of 1770 mg/kg/day and a TD50 (males, site: kidney, lesion: tubule adenoma + tubule carcinoma, dosed 103 weeks, study length 104 weeks) of 264 mg/kg/day. It also gave a TD50 (males, site: kidney, lesion: tubule adenoma, dosed 39 weeks, study length 66 weeks) of 239 mg/kg/day, a TD50 (males, site: kidney, lesion: tubule adenoma, dosed 66 weeks, study length 66 weeks) of 1770 mg/kg/day and a TD50 (males, site: kidney, lesion: tubule adenoma, dosed 103 weeks, study length 104 weeks) of 292 mg/kg/day. It also gave a TD50 (males, site: liver, lesion: hepatocellular adenoma + hepatoblastoma + hepatocellular carcinoma, dosed 39 weeks, study length 66 weeks) of 70.3 mg/kg/day, a TD50 (males, site: liver, lesion: hepatocellular adenoma + hepatoblastoma + hepatocellular carcinoma, dosed 66 weeks, study length 66 weeks) of 102 mg/kg/day and a TD50 (males, site: liver, lesion: hepatocellular adenoma + hepatoblastoma + hepatocellular carcinoma, dosed 103 weeks, study length 104 weeks) of 53.8 mg/kg/day. For the same compound, the TD50 (males, site: liver, lesion: hepatocellular adenoma + hepatocellular carcinoma, dosed 39 weeks, study length 66 weeks) was 70.3 mg/kg/day, the TD50 (males, site: liver, lesion: hepatocellular adenoma + hepatocellular carcinoma, dosed 66 weeks, study length 66 weeks) was 102 mg/kg/day and the TD50 (males, site: liver, lesion: hepatocellular adenoma + hepatocellular carcinoma, dosed 103 weeks, study length 104 weeks) was 53.8 mg/kg/day. It also gave a TD50 (males, site: liver, lesion: hepatocellular adenoma, dosed 39 weeks, study length 66 weeks) of 97.8 mg/kg/day, a TD50 (males, site: liver, lesion: hepatocellular adenoma, dosed 66 weeks, study length 66 weeks) of 386 mg/kg/day and a TD50 (males, site: liver, lesion: hepatocellular adenoma, dosed 103 weeks, study length 104 weeks) of 71.4 mg/kg/day. For the same compound, the TD50 (males, site: liver, lesion: hepatocellular carcinoma, dosed 39 weeks, study length 66 weeks) was 95.8 mg/kg/day, the TD50 (males, site: liver, lesion: hepatocellular carcinoma, dosed 66 weeks, study length 66 weeks) was 114 mg/kg/day and the TD50 (males, site: liver, lesion: hepatocellular carcinoma, dosed 103 weeks, study length 104 weeks) was 59.6 mg/kg/day. For the same compound, the TD50 (males, site: liver, lesion: hepatocholangiocarcinoma, dosed 39 weeks, study length 66 weeks) was 1240 mg/kg/day, the TD50 (males, site: liver, lesion: hepatocholangiocarcinoma, dosed 103 weeks, study length 104 weeks) was 1230 mg/kg/day and the TD50 (males, site: lung, lesion: alveolar/bronchiolar adenoma + alveolar/bronchiolar carcinoma, dosed 103 weeks, study length 104 weeks) was 794 mg/kg/day. For the same compound, the TD50 (males, site: lung, lesion: alveolar/bronchiolar adenoma, dosed 103 weeks, study length 104 weeks) was 1290 mg/kg/day, the TD50 (males, site: rectum, lesion: adenocarcinoma, dosed 103 weeks, study length 104 weeks) was 363 mg/kg/day and the TD50 (males, site: rectum, lesion: polypoid adenoma, dosed 39 weeks, study length 66 weeks) was 297 mg/kg/day. For the same compound, the TD50 (males, site: rectum, lesion: polypoid adenoma, dosed 66 weeks, study length 66 weeks) was 426 mg/kg/day, the TD50 (males, site: rectum, lesion: polypoid adenoma, dosed 103 weeks, study length 104 weeks) was 64.3 mg/kg/day and the TD50 (males, site: testis, lesion: interstitial-cell adenoma, bilateral + interstitial-cell adenoma, dosed 103 weeks, study length 104 weeks) was 133 mg/kg/day. The TD50 (males, site: urinary bladder, lesion: transitional-cell carcinoma + transitional-cell papilloma, dosed 66 weeks, study length 66 weeks) was 3640 mg/kg/day, the TD50 (males, site: urinary bladder, lesion: transitional-cell carcinoma + transitional-cell papilloma, dosed 103 weeks, study length 104 weeks) was 564 mg/kg/day and the TD50 (males, site: urinary bladder, lesion: transitional-cell carcinoma, dosed 66 weeks, study length 66 weeks) was 3640 mg/kg/day. For the same compound, the TD50 (males, site: urinary bladder, lesion: transitional-cell carcinoma, dosed 103 weeks, study length 104 weeks) was 1790 mg/kg/day and the TD50 (males, site: urinary bladder, lesion: transitional-cell papilloma, dosed 103 weeks, study length 104 weeks) was 846 mg/kg/day.
